According to PMC5111045, “Modulation of NMDA channel gating by Ca^2+ and Cd^2+ binding to the external pore mouth” (Scientific Reports, 2016):
Read-outs that look alike come from different tables or passages of the source.

Assays:
[1] = molecular target: T1, NMDA receptor channel (GluN1a variant/GluN2B), wild-type (Rattus norvegicus, UniProt P35439+Q00960); assay: Outside-out patch recordings of NMDA receptor currents, wild-type channel expressed in Xenopus oocytes; type: cell-based
T1 construct: expressed in transfected cells; host or cells: Xenopus laevis oocytes (cRNA injection)
T1 sequence (Q00960 27-1482, other chains not shown): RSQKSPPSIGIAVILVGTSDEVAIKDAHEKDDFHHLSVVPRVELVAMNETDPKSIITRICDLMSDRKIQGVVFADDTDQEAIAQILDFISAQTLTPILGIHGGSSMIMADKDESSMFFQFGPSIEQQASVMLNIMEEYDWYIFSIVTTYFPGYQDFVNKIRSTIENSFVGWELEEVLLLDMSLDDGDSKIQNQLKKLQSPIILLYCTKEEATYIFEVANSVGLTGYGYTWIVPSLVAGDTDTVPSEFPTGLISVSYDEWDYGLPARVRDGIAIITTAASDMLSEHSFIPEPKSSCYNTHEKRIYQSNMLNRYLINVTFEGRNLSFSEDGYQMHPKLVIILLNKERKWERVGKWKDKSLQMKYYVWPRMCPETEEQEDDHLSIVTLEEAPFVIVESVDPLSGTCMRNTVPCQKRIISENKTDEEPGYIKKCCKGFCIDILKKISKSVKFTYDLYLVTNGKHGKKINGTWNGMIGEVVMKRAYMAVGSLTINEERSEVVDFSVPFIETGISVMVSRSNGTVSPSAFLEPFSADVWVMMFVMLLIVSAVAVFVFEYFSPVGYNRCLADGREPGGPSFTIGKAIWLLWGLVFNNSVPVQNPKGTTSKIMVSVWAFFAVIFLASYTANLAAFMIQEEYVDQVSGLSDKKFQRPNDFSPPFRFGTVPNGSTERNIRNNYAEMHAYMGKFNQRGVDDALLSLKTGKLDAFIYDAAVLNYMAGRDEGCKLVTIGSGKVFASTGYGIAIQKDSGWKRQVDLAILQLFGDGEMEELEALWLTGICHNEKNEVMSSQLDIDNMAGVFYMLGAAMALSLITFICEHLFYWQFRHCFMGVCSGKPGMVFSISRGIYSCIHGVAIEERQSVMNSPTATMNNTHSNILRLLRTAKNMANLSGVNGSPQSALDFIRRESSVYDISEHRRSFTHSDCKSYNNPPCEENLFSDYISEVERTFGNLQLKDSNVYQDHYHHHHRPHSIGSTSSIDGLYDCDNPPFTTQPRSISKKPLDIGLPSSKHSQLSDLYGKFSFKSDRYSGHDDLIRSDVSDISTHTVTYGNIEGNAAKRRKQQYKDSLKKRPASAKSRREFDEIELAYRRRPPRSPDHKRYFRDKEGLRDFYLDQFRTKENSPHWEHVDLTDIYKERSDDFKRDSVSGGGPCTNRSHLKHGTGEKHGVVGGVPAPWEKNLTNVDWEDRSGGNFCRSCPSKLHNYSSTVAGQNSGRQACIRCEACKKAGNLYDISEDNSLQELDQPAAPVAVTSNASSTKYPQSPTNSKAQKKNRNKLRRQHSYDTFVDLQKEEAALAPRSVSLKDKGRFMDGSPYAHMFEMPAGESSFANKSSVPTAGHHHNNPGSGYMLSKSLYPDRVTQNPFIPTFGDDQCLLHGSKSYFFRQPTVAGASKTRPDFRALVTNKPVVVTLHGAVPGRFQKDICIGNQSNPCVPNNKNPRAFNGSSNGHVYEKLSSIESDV
Procedure: (§1) The rat GluN1a variant and GluN2B cDNA clones were used in this study. Point mutations were made by site-directed mutagenesis using the QuickChange Site-Directed Mutagenesis kit (Stratagene, La Jolla, CA). Mutations were verified by DNA sequencing to ensure the lack of any inadvertent mutations. The capped cRNA transcripts were then synthesized using T7 and T3 mMESSAGE mMACHINE transcription kits (Ambion, Austin, TX), and were stored at −80 °C.
(§2) This study was carried out in accordance with the ethical information guidelines of the National Taiwan University College of Medicine. The protocols for the care and use of animals were approved by the National Taiwan University College of Medicine and College of Public Health Institutional Animal Care and Use Committee (IACUC). All efforts were made to minimize animal suffering. Adult female Xenopus laevis were anesthetized, and ovarian lobes containing stage V or VI oocytes were removed. Oocytes were dispersed after manual disruption of the egg sac, and were digested for 1 hr with collagenase type I (2 mg/ml) to remove the follicular layer. A mixture of GluN1a variant and GluN2B cRNAs with a ratio of 1:5 (i.e., 0.1–4 ng of GluN1a variant and 0.5–20 ng of GluN2B) (Kashiwagi et al. 2002) was injected into oocytes. Oocytes were maintained in the culture medium (96 mM NaCl, 2 mM KCl, 1.8 mM MgCl2, 1.8 mM CaCl2, 5 mM HEPES, and 50 ug/ml gentamycin, pH 7.6) at 18 °C for 2–3 days before electrophysiological recordings.
Oocytes were placed in a recording chamber containing Mg^2+-free bath solution (150 mM NaMeSO3, 5 mM NaCl, and 10 mM HEPES; pH 7.4). Outside-out patch recordings were obtained using fire-polished pipettes pulled from borosilicate capillaries (outer diameter, 1.55–1.60 mm; Hilgenberg, Malsfeld, Germany). Recording pipettes ([…]) were filled with the pipette solution containing 150 mM NaMeSO3, 5 mM NaCl, 5 mM EGTA, and 10 mM HEPES (pH 7.4). A seal was formed, and the outside-out patch configuration was obtained in Tyrode’s solution (150 mM NaCl, 4 mM KCl, 2 mM MgCl2, 2 mM CaCl2, and 10 mM HEPES; pH 7.4). The patch was then lifted from the bottom of the chamber and moved in front of a set of “theta glass” tubes (2.0 mm outer diameter pulled to an opening of ~300 μm in width; Warner Instrument, Hamden, CT) emitting external recording solutions. The standard external solution was Mg^2+-free Ca^2+-free Tyrode’s solution (pH 7.4), but 2 mM Ca^2+ or 0.1–100 μM Cd^2+ may be added to the external recording solution as specified in each different experimental condition. The glass-tube holder was connected to a stepper motor (SF-77B perfusion system, Warner Instrument) to achieve fast switch for rapid solution change. Drugs and salts were purchased from Sigma (St. Louis, MO). NMDA, glycine, and Cd^2+ were dissolved in water to make 100, 100, and 10 mM stock solutions, respectively. The stock solutions were then diluted into the external recording solution to make 1 to 100 μM Cd^2+, 1 to 300 μM NMDA, and 30 μM glycine. The NMDA currents were recorded at a membrane potential of −70 mV and at room temperature (~25 °C) with an […] amplifier, filtered at 1 kHz with a four-pole Bessel filter, digitized at 500 μs intervals, and stored using a Digidata-1322A analog/digital interface along with the pCLAMP software (all from MDS Analytical Technologies, Sunnyvale, CA). To plot the activation and the desensitization curves, a patch was moved from the NMDA- and glycine-free external solution to the external solution containing 0 to 100 μM NMDA and 30 μM glycine for 3 s (the desensitization prepulse), and then moved to another external solution containing 300 μM NMDA and 30 μM glycine for 3 s (the test pulse) before being moved back to the NMDA-free external solution again. The amplitude of the sustained currents in the desensitization prepulse in each different concentration of NMDA is normalized to the maximal current and plotted against the NMDA concentration to obtain the activation curve. […]

[2] = molecular target: T2, E661AE662A double mutant NMDA channel (Rattus norvegicus, UniProt P35439+Q00960, E661A/E662A); assay: Outside-out patch recordings, E661AE662A double mutant NMDA channel; type: cell-based; conditions: 2 mM extracellular Ca2+; n = 6, WT n = 9; P = 5.1*10^−5
T2 construct: expressed in transfected cells; host or cells: Xenopus laevis oocytes (cRNA injection)
T2 sequence (Q00960 27-1482, other chains not shown): as above
Procedure: as §1, §2
Oocytes were placed in a recording chamber containing Mg^2+-free bath solution (150 mM NaMeSO3, 5 mM NaCl, and 10 mM HEPES; pH 7.4). Outside-out patch recordings were obtained using fire-polished pipettes pulled from borosilicate capillaries (outer diameter, 1.55–1.60 mm; Hilgenberg, Malsfeld, Germany). Recording pipettes ([…]) were filled with the pipette solution containing 150 mM NaMeSO3, 5 mM NaCl, 5 mM EGTA, and 10 mM HEPES (pH 7.4). A seal was formed, and the outside-out patch configuration was obtained in Tyrode’s solution (150 mM NaCl, 4 mM KCl, 2 mM MgCl2, 2 mM CaCl2, and 10 mM HEPES; pH 7.4). The patch was then lifted from the bottom of the chamber and moved in front of a set of “theta glass” tubes (2.0 mm outer diameter pulled to an opening of ~300 μm in width; Warner Instrument, Hamden, CT) emitting external recording solutions. The standard external solution was Mg^2+-free Ca^2+-free Tyrode’s solution (pH 7.4), but 2 mM Ca^2+ or 0.1–100 μM Cd^2+ may be added to the external recording solution as specified in each different experimental condition. The glass-tube holder was connected to a stepper motor (SF-77B perfusion system, Warner Instrument) to achieve fast switch for rapid solution change. Drugs and salts were purchased from Sigma (St. Louis, MO). NMDA, glycine, and Cd^2+ were dissolved in water to make 100, 100, and 10 mM stock solutions, respectively. The stock solutions were then diluted into the external recording solution to make 1 to 100 μM Cd^2+, 1 to 300 μM NMDA, and 30 μM glycine. The NMDA currents were recorded at a membrane potential of −70 mV and at room temperature (~25 °C) with an […] amplifier, filtered at 1 kHz with a four-pole Bessel filter, digitized at 500 μs intervals, and stored using a Digidata-1322A analog/digital interface along with the pCLAMP software (all from MDS Analytical Technologies, Sunnyvale, CA). […]

[3] = molecular target: T3, T647A (GluN2B) mutant NMDA channel (Rattus norvegicus, UniProt P35439+Q00960, T647A); assay: Outside-out patch recordings, T647A (GluN2B) mutant NMDA channel; type: cell-based; conditions: 2 mM Ca2+; P = 0.028
T3 construct: expressed in transfected cells; host or cells: Xenopus laevis oocytes (cRNA injection)
T3 sequence (Q00960 27-1482 T647A, other chains not shown): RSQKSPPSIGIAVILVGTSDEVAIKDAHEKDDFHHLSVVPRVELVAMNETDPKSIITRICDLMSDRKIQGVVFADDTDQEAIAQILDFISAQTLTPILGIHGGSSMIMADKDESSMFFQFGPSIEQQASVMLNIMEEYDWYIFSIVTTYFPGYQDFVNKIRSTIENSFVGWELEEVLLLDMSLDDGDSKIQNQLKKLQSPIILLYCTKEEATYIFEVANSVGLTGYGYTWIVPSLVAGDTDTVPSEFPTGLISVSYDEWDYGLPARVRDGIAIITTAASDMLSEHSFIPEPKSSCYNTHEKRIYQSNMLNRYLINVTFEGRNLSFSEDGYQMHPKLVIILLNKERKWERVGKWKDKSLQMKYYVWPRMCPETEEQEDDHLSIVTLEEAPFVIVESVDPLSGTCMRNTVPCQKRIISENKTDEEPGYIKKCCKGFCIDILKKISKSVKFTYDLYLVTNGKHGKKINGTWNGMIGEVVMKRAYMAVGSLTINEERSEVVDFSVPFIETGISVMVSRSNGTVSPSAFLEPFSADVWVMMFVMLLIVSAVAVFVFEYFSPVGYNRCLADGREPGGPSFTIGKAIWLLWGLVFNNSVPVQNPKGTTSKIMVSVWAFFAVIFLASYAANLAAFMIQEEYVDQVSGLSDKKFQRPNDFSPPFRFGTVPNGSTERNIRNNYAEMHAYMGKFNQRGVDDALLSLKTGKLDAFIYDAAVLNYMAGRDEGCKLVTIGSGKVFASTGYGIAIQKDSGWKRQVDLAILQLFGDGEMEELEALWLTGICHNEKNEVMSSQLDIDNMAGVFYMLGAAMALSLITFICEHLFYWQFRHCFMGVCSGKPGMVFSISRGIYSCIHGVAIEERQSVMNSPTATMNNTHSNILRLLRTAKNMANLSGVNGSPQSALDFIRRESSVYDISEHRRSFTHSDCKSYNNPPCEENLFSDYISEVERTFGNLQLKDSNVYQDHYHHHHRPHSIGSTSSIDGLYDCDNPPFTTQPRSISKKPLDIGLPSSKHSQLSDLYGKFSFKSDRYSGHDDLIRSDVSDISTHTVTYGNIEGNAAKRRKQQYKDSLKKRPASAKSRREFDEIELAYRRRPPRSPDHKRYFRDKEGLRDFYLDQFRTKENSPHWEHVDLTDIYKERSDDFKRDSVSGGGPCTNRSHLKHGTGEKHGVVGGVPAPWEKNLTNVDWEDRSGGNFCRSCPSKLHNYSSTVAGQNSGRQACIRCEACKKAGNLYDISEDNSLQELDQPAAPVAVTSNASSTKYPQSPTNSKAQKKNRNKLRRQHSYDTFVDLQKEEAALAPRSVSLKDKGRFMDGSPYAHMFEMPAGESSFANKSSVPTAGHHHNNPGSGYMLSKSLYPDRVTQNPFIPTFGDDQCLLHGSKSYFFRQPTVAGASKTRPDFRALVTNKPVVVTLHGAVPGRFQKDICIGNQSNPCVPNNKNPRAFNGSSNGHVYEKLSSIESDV
Procedure: as §1, §2
Oocytes were placed in a recording chamber containing Mg^2+-free bath solution (150 mM NaMeSO3, 5 mM NaCl, and 10 mM HEPES; pH 7.4). […] The NMDA currents were recorded at a membrane potential of −70 mV and at room temperature (~25 °C) with an […] amplifier, filtered at 1 kHz with a four-pole Bessel filter, digitized at 500 μs intervals, and stored using a Digidata-1322A analog/digital interface along with the pCLAMP software (all from MDS Analytical Technologies, Sunnyvale, CA). […]

wild-type NMDA channel = test system: wild-type NMDA channel; design: method as in PMID 12451122; conditions: 1 mM Ca2+; decreased from 73 pS; cited from earlier work
[4] = test system: triple mutant NMDA channel (three negatively charged DRPEER residues neutralized); design: method as in PMID 12451122; conditions: 1 mM Ca2+; decreased from 56 pS; cited from earlier work

Row | Structure (SMILES) | effect on NMDAR current, cation present during the NMDA pulse ([1]; 2 mM extracellular Ca2+, 300 μM NMDA plus 30 μM glycine) | effect on NMDAR current peak, cation applied before but not during the NMDA pulse ([1]; 2 mM extracellular Ca2+, closed channel) | effect on sustained current (relative current) compared with WT channel [2] | relative hook current after wash-off of agonists and blocking cation, compared with WT channel [3] | overall current flow through the NMDA channel in Ca2+ (wild-type NMDA channel) [pS] | overall current flow through the NMDA channel in Ca2+ [4] [pS] | Kd ([1]; read-out: apparent dissociation constant of NMDA (KN), fit to activation data) [µM] | Kd ([1]; read-out: apparent dissociation constant of NMDA (KN), fit to desensitization data) [µM]
1 | [Ca+2] [Ca^2+] | decreases the NMDAR current | evident decrease of the NMDAR current peak | significantly decreased | significantly larger hook current | 41 | 45 | – | –
2 | CN[C@H](CC(=O)O)C(=O)O [NMDA] | – | – | – | – | – | – | 47 | 35
